Measurements published in ChEMBL document CHEMBL5244223, “l,8-Naphthalimide based DNA intercalators and anticancer agents. A systematic review from 2007 to 2017” (Eur J Med Chem, 2018).

Tests used:
Calf thymus DNA [1] = assay: Binding affinity to calf thymus DNA assessed as binding constant by fluorescence based EtBr-displacement based UV-Vis spectroscopic analysis; format: nucleic-acid assay; settings: Bos taurus
Salmonella typhi = assay: Antibacterial activity against Salmonella enterica subsp. enterica serovar Typhi assessed as inhibition of bacterial growth incubated for 24 hrs by two-fold serial dilution assay; format: functional
Bacillus subtilis = assay: Antibacterial activity against Bacillus subtilis ATCC6633 assessed as inhibition of bacterial growth incubated for 24 hrs by two-fold serial dilution assay; format: functional
Proteus = assay: Antibacterial activity against Proteus ATCC13315 assessed as inhibition of bacterial growth incubated for 24 hrs by two-fold serial dilution assay; format: functional
Micrococcus luteus = assay: Antibacterial activity against Micrococcus luteus assessed as inhibition of bacterial growth incubated for 24 hrs by two-fold serial dilution assay; format: functional
Staphylococcus aureus [2] = assay: Antibacterial activity against Staphylococcus aureus ATCC25923 assessed as inhibition of bacterial growth incubated for 24 hrs by two-fold serial dilution assay; format: functional
Pseudomonas aeruginosa = assay: Antibacterial activity against Pseudomonas aeruginosa assessed as inhibition of bacterial growth incubated for 24 hrs by two-fold serial dilution assay; format: functional
Staphylococcus aureus [3] = assay: Antibacterial activity against methicillin-resistant Staphylococcus aureus N315 assessed as inhibition of bacterial growth incubated for 24 hrs by two-fold serial dilution assay; format: functional
Escherichia coli = assay: Antibacterial activity against Escherichia coli JM109 assessed as inhibition of bacterial growth incubated for 24 hrs by two-fold serial dilution assay; format: functional
Salmon testes DNA = assay: Binding affinity to salmon Testis DNA assessed as equilibrium binding constant by steady-state fluorescence spectroscopic analysis; settings: Salmo salar
SMMC-7721 [4] = assay: Cytotoxicity against human SMMC-7721 cells assessed as inhibition of cell growth incubated for 48 hrs by MTT assay; format: functional, cell-based; settings: SMMC-7721, 48 h
HepG2 = assay: Cytotoxicity against human HepG2 cells assessed as inhibition of cell growth incubated for 48 hrs by MTT assay; format: functional, cell-based; settings: HepG2, 48 h
HCT-116 [5] = assay: Cytotoxicity against human HCT-116 cells assessed as inhibition of cell growth incubated for 48 hrs by MTT assay; format: functional, cell-based; settings: HCT-116, 48 h
K562 = assay: Cytotoxicity against human K562 cells assessed as inhibition of cell growth incubated for 48 hrs by MTT assay; format: functional, cell-based; settings: K562, 48 h
L02 = assay: Antiproliferative activity against human HL7702 cells assessed as inhibition of cell proliferation incubated for 24 hrs by MTT assay; format: functional, cell-based; settings: L02, 24 h
MCF7 [6] = assay: Antiproliferative activity against human MCF7 cells assessed as inhibition of cell proliferation incubated for 24 hrs by MTT assay; format: functional, cell-based; settings: MCF7, 24 h
BGC-823 = assay: Antiproliferative activity against human BGC-823 cells assessed as inhibition of cell proliferation incubated for 24 hrs by MTT assay; format: functional, cell-based; settings: BGC-823, 24 h
HCT-15 = assay: Cytotoxicity against human HCT-15 cells assessed as inhibition of cell growth incubated for 24 hrs by sulforhodamine B assay; format: functional, cell-based; settings: HCT-15, 24 h
HeLa [7] = assay: Cytotoxicity against human HeLa cells assessed as inhibition of cell growth by MTT assay; format: functional, cell-based
Clupea harengus = assay: Binding affinity to Atlantic herring DNA assessed as binding constant by fluorescence based EtBr-UV absorption spectral analysis
SMMC-7721 [8] = assay: Antiproliferative activity against human SMMC-7721 cells assessed as inhibition of cell proliferation incubated for 48 hrs by MTT assay; format: functional, cell-based; settings: SMMC-7721, 48 h
MCF7 [9] = assay: Antiproliferative activity against human MCF7 cells assessed as inhibition of cell proliferation incubated for 48 hrs by MTT assay; format: functional, cell-based; settings: MCF7, 48 h
HeLa [10] = assay: Antiproliferative activity against human HeLa cells assessed as inhibition of cell proliferation incubated for 48 hrs by MTT assay; format: functional, cell-based
Calf thymus DNA [11] = assay: Binding affinity to calf thymus DNA assessed as DNA intercalation by measuring change in melting temperature by thermal denaturation assay; format: nucleic-acid assay; settings: Bos taurus
HCT-116 [12] = assay: Cytotoxicity against human HCT-116 cells assessed as inhibition of cell growth incubated for 72 hrs by MTT assay; format: functional, cell-based; settings: HCT-116, 72 h

Nc1ccc2c3c(cccc13)C(=O)N(c1cccc(-c3cc[n+]4c(c3)-c3cccc[n+]3CC4)c1)C2=O
K (Calf thymus DNA [1]): 2.3 10^6/M

O=C1c2cccc3c(Sc4nc5ccccc5n4Cc4ccc(F)cc4F)ccc(c23)C(=O)N1CCCCn1cncn1
MIC (Salmonella typhi): > 512 µg/mL
MIC (Bacillus subtilis): > 512 µg/mL
MIC (Proteus): > 512 µg/mL
MIC (Micrococcus luteus): > 512 µg/mL
MIC (Staphylococcus aureus [2]): > 512 µg/mL
MIC (Pseudomonas aeruginosa): > 512 µg/mL
MIC (Staphylococcus aureus [3]): > 512 µg/mL
MIC (Escherichia coli): > 512 µg/mL

Nc1ccc2c3c(cccc13)C(=O)N(CC[n+]1ccccc1)C2=O
Kb (Salmon testes DNA): 1.38 10^5/M

CCCOC(=O)c1ccc2c3c(cccc13)C(=O)N(CCN(C)C)C2=O
IC50 (SMMC-7721 [4]): > 50000 nM
IC50 (HepG2): > 50000 nM
IC50 (HCT-116 [5]): > 50000 nM
IC50 (K562): > 50000 nM

O=C1c2cccc3c2c(cc2[nH]c(-c4c[nH]c5ccccc45)nc23)C(=O)N1Nc1ccccc1
IC50 (L02): 700 nM
IC50 (MCF7 [6]): 700 nM
IC50 (BGC-823): 700 nM

O=C1c2cccc3c(Sc4nc5ccccc5n4Cc4ccc(F)cc4)ccc(c23)C(=O)N1CCCCn1cncn1
MIC (Salmonella typhi): > 512 µg/mL
MIC (Bacillus subtilis): > 512 µg/mL
MIC (Proteus): > 512 µg/mL
MIC (Micrococcus luteus): > 512 µg/mL
MIC (Staphylococcus aureus [2]): > 512 µg/mL
MIC (Pseudomonas aeruginosa): > 512 µg/mL
MIC (Staphylococcus aureus [3]): > 512 µg/mL
MIC (Escherichia coli): > 512 µg/mL

CCOC(=O)c1ccc2c3c(cccc13)C(=O)N(CCN(C)C)C2=O
IC50 (SMMC-7721 [4]): 13700 nM
IC50 (HepG2): 13700 nM
IC50 (HCT-116 [5]): 13700 nM
IC50 (K562): 13700 nM

O=C1c2cccc3cccc(c23)C(=O)N1CCCNCc1cccs1
IC50 (HCT-15): 2440 nM

O=C1c2cccc3c(Sc4nc5ccccc5n4Cc4ccccc4Cl)ccc(c23)C(=O)N1CCCCn1cncn1
MIC (Salmonella typhi): > 512 µg/mL
MIC (Bacillus subtilis): > 512 µg/mL
MIC (Proteus): > 512 µg/mL
MIC (Micrococcus luteus): > 512 µg/mL
MIC (Staphylococcus aureus [2]): > 512 µg/mL
MIC (Pseudomonas aeruginosa): > 512 µg/mL
MIC (Staphylococcus aureus [3]): > 512 µg/mL
MIC (Escherichia coli): > 512 µg/mL

CN(C)CCN1C(=O)c2cccc3c2c(cc2nc(C(F)(F)F)c(C(F)(F)F)nc23)C1=O
IC50 (HeLa [7]): 3800 nM

NCCCCNCCCCN1C(=O)c2cccc3cccc(c23)C1=O
Kb (Clupea harengus): 1.15 10^4/M

COC(=O)c1ccc2c3c(cccc13)C(=O)N(CCN(C)C)C2=O
IC50 (SMMC-7721 [4]): 13700 nM
IC50 (HepG2): 13700 nM
IC50 (HCT-116 [5]): 13700 nM
IC50 (K562): 13700 nM

NCCNCCCCN1C(=O)c2cccc3cccc(c23)C1=O
Kb (Clupea harengus): 1.15 10^4/M

O=C1c2cccc3cccc(c23)C(=O)N1CCn1cc(-c2ccccc2)nn1
IC50 (HCT-15): 2440 nM

O=C1c2cccc3cc(-n4cc(-c5ccccc5)nn4)cc(c23)C(=O)N1CCN1CCNCC1
IC50 (SMMC-7721 [8]): 300 nM
IC50 (MCF7 [9]): 300 nM
IC50 (HeLa [10]): 300 nM

CN(C)CCN1C(=O)c2cccc3c2c(cc2[nH]c(-c4c[nH]c5ccccc45)nc23)C1=O
IC50 (L02): 700 nM
IC50 (MCF7 [6]): 700 nM
IC50 (BGC-823): 700 nM

CN(C)CCN1C(=O)c2cccc3c2c(cc2nccnc23)C1=O
IC50 (HeLa [7]): 1900 nM
ΔTm (Calf thymus DNA [11]): 3.9 °C

O=C1c2cccc3c(Sc4nc5ccccc5n4Cc4ccc(Cl)cc4)ccc(c23)C(=O)N1CCCCn1cncn1
MIC (Salmonella typhi): > 512 µg/mL
MIC (Bacillus subtilis): > 512 µg/mL
MIC (Proteus): > 512 µg/mL
MIC (Micrococcus luteus): > 512 µg/mL
MIC (Staphylococcus aureus [2]): > 512 µg/mL
MIC (Pseudomonas aeruginosa): > 512 µg/mL
MIC (Staphylococcus aureus [3]): > 512 µg/mL
MIC (Escherichia coli): > 512 µg/mL

CCNN1C(=O)c2cccc3c2c(cc2[nH]c(-c4c[nH]c5ccccc45)nc23)C1=O
IC50 (L02): 700 nM
IC50 (MCF7 [6]): 700 nM
IC50 (BGC-823): 700 nM

O=C1c2cccc3cccc(c23)C(=O)N1CCCn1cc(-c2ccccc2)nn1
IC50 (HCT-15): 2440 nM

O=C1c2cccc3cccc(c23)C(=O)N1CCCNCCN(CCO)CCO
IC50 (HCT-116 [12]): > 40000 nM

NCCNCCCN1C(=O)c2cccc3cccc(c23)C1=O
Kb (Clupea harengus): 1.15 10^4/M

O=C1c2cccc3c2c(cc2[nH]c(-c4c[nH]c5ccccc45)nc23)C(=O)N1CCCO
IC50 (L02): 700 nM
IC50 (MCF7 [6]): 700 nM
IC50 (BGC-823): 700 nM

NCCCN1C(=O)c2cccc3cccc(c23)C1=O [NAPHTHALIMIDOPROPYLAMINE]
IC50 (HCT-15): 2440 nM

O=C1c2cccc3cc(-n4ccnn4)cc(c23)C(=O)N1CCO
IC50 (SMMC-7721 [8]): 300 nM
IC50 (MCF7 [9]): 300 nM
IC50 (HeLa [10]): 300 nM

CN(C)c1ccc2c3c(cccc13)C(=O)N(CCc1cc[n+](C)cc1)C2=O
Kb (Salmon testes DNA): 1.38 10^5/M

O=C1c2cccc3cccc(c23)C(=O)N1CCCN(CCCN1C(=O)c2cccc3cccc(c23)C1=O)CCN(CCO)CCO
IC50 (HCT-116 [12]): > 15000 nM

O=C1c2cccc3c2c(cc2[nH]c(-c4c[nH]c5ccccc45)nc23)C(=O)N1NCc1ccccc1
IC50 (L02): 700 nM
IC50 (MCF7 [6]): 700 nM
IC50 (BGC-823): 700 nM
